Source: patent publication US20230312652A1, “NOVEL PEPTIDES AND USES THEREOF” (Aarhus Universitet, priority 2020, published 2023)
Where a SMILES comes first, the peptide text is derived from it.

Experiments:
[1] = test system: primary hippocampal neurons; experiment: Lysosomal acidification in wild-type hippocampal neurons, LysoSensor DND-189 live imaging; assay type: cell-based, mouse; details: 1 uM
Experimental: Primary hippocampal neurons were seeded in an 8-well ibidi chamber pre-coated with Poly-I and laminin. 75.000 neurons were seeded pr. well. After 5 days in vitro the neurons were stimulated for 4, 8 or 24 hours with peptide P1 at 1 uM in neurobasal A with B27. After stimulation, the medium was changed to pre-warmed (37° C.) neurobasal A containing 1 uM of LysoSensor probe DND-189 (an acidotropic probes that accumulates in acidic organelles as the result of protonation) and incubated for 30 min. at 37° C. in a 5% C02 atmosphere. Hereafter, the media was changed to pre-warmed FluoroBrite Medium and the neurons were imaged in Olympus microscopy system. Pictures were taken of the lysosomes and processed using the ScanR imaging software to give fluorescence (intensity) of each lysosomal vesicle. The summed total intensity of all lysosomes was calculated and divided by the total number of neurons imaged yielding the total intensity of lysosomes per neuron. Student's t-test was used for statistical analysis.

[2] = test system: R6/2 mice (mouse model of Huntington's); experiment: Brain weight and activity studies in R6/2 mice (open field, clasping, rotarod); assay type: in vivo; details: 13 mg/kg SC daily
Experimental: (§1) The R6/2 mice were injected with a daily dose of 13 mg/kg of P1 subcutaneously in 4.38 mM L-His, 140 mM NaCl, 0.2% Tween-20 and 1500 IU hyaluronidase (pH 6.15) between 8 weeks to 12 weeks of age. At 12 weeks of age, mice were sacrificed and their brains removed and both hippocampus—cortex and striatal tissue was isolated and lysed in RIPA lysis buffer containing containing cOmplete and phosSTOP.
Prior to treatment (8 weeks of age), the R6/2 mice were weighed and assessed for clasping and rotarod behavior before randomization to 4 cages of n=6 each (two cages pr treatment group). The experimenter remained blinded throughout the studies and data analysis. Motor coordination was measured by hind-limb clasping and rotarod between week 7-12.
Clasping: Mice were once weekly assessed for clasping behavior. Mice were placed on the top grid of a cage and then held by the tail and lifted over the top of the homecage for 10 successive trials of 3 seconds with 3 second rest intervals
Rotarod: Accelerating test—cylinder accelerates from 4 to 40 RPM in 5 minutes with linear speed progression. During the first week of training, mice undergo 3 trials per day for 3 consecutive days. During training sessions, mice receive “second changes” when falling from the rotarod. The following weeks, mice are tested on only one day for 3 consecutive trials. The mean latency to fall is used for data analysis.
At 11 weeks of age, mice were subjected to an open field consisting of a 40×40 cm box with transparent Plexiglas walls of 50 cm height. Their behaviour was recorded using an automated tracking software and camera (Anymaze, Havard apparatus). Distance travelled and number of rears were recorded over a 20 min. period.
Brain weight: At 12 weeks of age, mice were sacrificed and the entire brain was carefully extracted and weighed using a fine-scale weigh.

[3] = target: T1, hERG potassium channels (Homo sapiens, UniProt Q12809); experiment: hERG inhibition, manual patch-clamp in CHO cell line; assay type: cell-based; details: 0.1-30 uM, room temperature
T1 construct: expressed in transfected cells
T1 sequence (Q12809 whole entry): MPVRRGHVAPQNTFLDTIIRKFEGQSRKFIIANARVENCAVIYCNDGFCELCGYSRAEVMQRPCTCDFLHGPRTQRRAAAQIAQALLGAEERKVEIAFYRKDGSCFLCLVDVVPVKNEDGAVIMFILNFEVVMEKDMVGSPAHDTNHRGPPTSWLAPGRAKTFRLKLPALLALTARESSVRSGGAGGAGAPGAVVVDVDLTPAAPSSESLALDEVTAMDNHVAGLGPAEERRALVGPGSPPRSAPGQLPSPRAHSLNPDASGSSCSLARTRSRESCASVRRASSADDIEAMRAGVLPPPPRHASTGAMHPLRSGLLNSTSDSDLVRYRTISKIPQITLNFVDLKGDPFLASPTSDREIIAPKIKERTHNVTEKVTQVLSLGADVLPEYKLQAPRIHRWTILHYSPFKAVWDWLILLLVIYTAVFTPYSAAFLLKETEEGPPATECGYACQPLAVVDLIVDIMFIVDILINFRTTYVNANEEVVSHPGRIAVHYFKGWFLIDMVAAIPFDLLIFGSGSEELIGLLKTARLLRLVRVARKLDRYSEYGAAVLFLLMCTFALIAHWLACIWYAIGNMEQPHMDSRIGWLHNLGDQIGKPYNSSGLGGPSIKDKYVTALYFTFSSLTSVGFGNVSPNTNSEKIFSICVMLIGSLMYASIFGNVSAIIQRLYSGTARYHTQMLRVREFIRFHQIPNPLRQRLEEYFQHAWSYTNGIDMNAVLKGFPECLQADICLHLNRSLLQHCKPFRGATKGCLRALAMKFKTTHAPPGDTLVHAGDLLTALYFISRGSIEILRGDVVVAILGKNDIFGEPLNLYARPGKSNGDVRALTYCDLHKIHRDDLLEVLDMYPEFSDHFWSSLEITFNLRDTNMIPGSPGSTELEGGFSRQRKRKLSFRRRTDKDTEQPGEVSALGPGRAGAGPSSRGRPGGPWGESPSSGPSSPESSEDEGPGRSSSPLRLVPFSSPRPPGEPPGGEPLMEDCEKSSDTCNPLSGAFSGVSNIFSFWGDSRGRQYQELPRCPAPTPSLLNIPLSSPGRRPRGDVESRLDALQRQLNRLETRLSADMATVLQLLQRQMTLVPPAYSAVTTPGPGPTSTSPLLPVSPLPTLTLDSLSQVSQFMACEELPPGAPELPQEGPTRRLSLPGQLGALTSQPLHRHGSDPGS
Experimental: P1 (0.1-30 uM) was evaluated in vitro in a concentration-response (relationship of the effect on electric current passing through hERG (human ether-à-go-go-related gene) potassium channels (a surrogate for IKr, the rapidly activating, delayed rectifier cardiac potassium current) stably expressed in a CHO cell line using a manual patch-clamp technique.
The hERG current was recorded at room temperature using whole-cell patch-clamp techniques. Output signals from the patch-clamp amplifier were digitized and low-pass filtered at 2.9 kHz. The recording was controlled with Patchmaster Pro software. The recording chamber with cells seeded was mounted on an inverted microscope stage. A cell in the recording chamber was randomly picked up for testing. The cell was continuously perfused from the perfusion system. A micropipette filled with ICS was used as recording electrode in the manual patch-clamp study. The micropipette was prepared on the day of the patchclamp experiment using glass capillaries (GC150TF-10, Harvard Apparatus Co., UK). From the holding potential of −80 mV, the voltage was increased to +60 mV for 850 ms to open the hERG channels. After that, the voltage was decreased to −50 mV for 1275 ms, causing a “rebound” or tail current, the peak tail current was measured and collected for data analysis. Finally, the voltage was decreased to the holding potential (−80 mV). […]

[4] = test system: BDNF, TrkB, PGC1a, DARPP32; experiment: Neurotrophic and mitochondrial proteins in cortex of R6/2 mice after daily SC administration; assay type: in vivo, mouse; details: 13 mg/kg SC daily, 8 to 12 weeks of age
Experimental: In a separate study, we validated target engagement of P1 (SEQ ID NO: 1) in R6/2 mice (mouse model of Huntington's), when treated for a prolonged period in the late stage of disease in this model. R6/2 mice were obtained from the Jackson Laboratory as: • FEMALE B6CBA-Tg(HDexon1)62Gpb/3J, stock 006494. Hemizygous (R6/2) • FEMALE B6CBA-Tg(HDexon1)62Gpb/3J, stock 006494. NonCarrier (WT controls)
as §1
Levels of both BDNF and its receptor, TrkB, were validated along with levels of the mitochondrial master regulator PGC1a. In addition, levels of DARPP32, a marker of medium spiny neurons (MSN), which are the neurons that ultimately perish in HD, were evaluated in cortex tissue.

[5] = test system: BDNF, PGC1a and TFEB in GM04719 fibroblasts; experiment: BDNF, PGC1a and TFEB levels in HD patient-derived fibroblasts, western blotting; assay type: cell-based, human; details: 1 uM
Experimental: To validate the therapeutic potential of P1 in Huntington's Disease, we likewise assessed whether P1 could increase the three distinct pathways in fibroblasts derived from a HD patient. The fibroblasts were bought from Coriell Biobank. The patient-derived fibroblasts, named GM04719, was sampled from a person with clinical onset […]. The patient has 44-CAG repeats in their HTT-gene.
To assess target engagement by P1, 30,000-50,000 fibroblasts were seeded per well in a 96-well plate. The following day, the cells were treated with 1 uM of P1 and incubated at 37° C. and 5% CO2 at timepoints between 2-24 hours. Hereafter, the cells were lysed in RIPA lysis buffer containing cOmplete cocktail protease inhibitor. BDNF, PGC1a and TFEB levels were analysed by western blotting normalized to beta-actin.

[6] = 11 weeks of age, 20 min, vs vehicle

Compound: CSCC[C@@H]1NC(=O)[C@H](C(C)C)NC(=O)[C@H](CC(=O)O)NC(=O)[C@H](CCC(=O)O)NC(=O)[C@H](CCC(=O)O)NC(=O)[C@H](Cc2c[nH]cn2)NC(=O)[C@H](CCC(=O)O)NC(=O)[C@H](C(C)C)NC(=O)[C@@H]2CCCN2C(=O)[C@H](CCC(=O)O)NC(=O)[C@H]([C@@H](C)O)NC1=O [Peptide P1, [MTEPVEHEEDV]] (cyclo(MTEPVEHEEDV))
- lysosomal intensity (lysosomal acidification) ([1]; 4 hours): lysosomal intensity was increased
- lysosomal intensity (lysosomal acidification) ([1]; 8 hours): lysosomal intensity was increased
- lysosomal intensity (lysosomal acidification) ([1]; 24 hours): no difference
- average increase of brain weight ([2]; 8 to 12 weeks of age, at 12 weeks): 14 mg
- motor function, clasping ([2]; week 8-12): tendency to improve motor functions
- motor function, rotarod ([2]; week 8-12): tendency to improve motor functions
- distance travelled, open field [2, 6]: significantly higher
- rearing frequency, open field [2, 6]: significantly higher
- effect on hERG current [3]: no effect on hERG current
- BDNF levels in cortex [4]: significantly higher basal levels
- DARPP32 levels in cortex [4]: tendency to increase
- PGC1a levels in cortex [4]: significantly higher basal levels
- TrkB levels in cortex [4]: significantly higher basal levels
- PGC1a level ([5]; 6 hours of treatment): upregulated
- TFEB level ([5]; 6 hours of treatment): upregulated
- BDNF level ([5]; after 24 hours): significantly upregulated
